16 compounds from BindingDB's records for doi:10.1002/cbic.200600287 (Mcgill University, 2007) can be followed below.

pIC50: −log10 of the molar value.

Test in all cases: PTP Assay
The target of experiment [1] is T1, Tyrosine-protein phosphatase non-receptor type 7 (Homo sapiens, UniProt P35236).
T1 sequence (P35236 whole entry): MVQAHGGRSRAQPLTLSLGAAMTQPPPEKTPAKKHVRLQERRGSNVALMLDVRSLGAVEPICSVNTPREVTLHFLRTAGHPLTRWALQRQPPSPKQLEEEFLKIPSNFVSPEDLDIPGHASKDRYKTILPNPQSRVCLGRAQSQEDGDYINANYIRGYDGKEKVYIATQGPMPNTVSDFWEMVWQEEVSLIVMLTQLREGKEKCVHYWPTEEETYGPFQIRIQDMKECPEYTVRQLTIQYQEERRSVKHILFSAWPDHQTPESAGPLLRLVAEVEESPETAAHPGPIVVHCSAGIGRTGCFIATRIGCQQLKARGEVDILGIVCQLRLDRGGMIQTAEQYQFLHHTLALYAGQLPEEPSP
As to conditions: pH 7; 25 °C. On the procedure:
(§1) PTP assay were conducted at 25 C in 96-well plates. Reaction rates were determined using a Variokan plate reader from Thermo Electron. For assay pH 7.0 absorbance was measured every 30s over 10 min and the reaction rates were calculated by linear regression. Because the p-nitrophenol product does not absorb at pH 6.0.

Experiment [2] deals with T2, Dual specificity protein phosphatase 22 (Homo sapiens, UniProt Q9NRW4).
T2 sequence (Q9NRW4 whole entry): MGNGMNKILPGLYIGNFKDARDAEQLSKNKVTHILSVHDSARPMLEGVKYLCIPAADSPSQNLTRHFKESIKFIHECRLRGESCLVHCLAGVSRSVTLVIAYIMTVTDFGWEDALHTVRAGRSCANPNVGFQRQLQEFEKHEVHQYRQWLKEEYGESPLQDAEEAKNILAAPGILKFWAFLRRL
The settings on record: pH 6; 25 °C. On the procedure:
as §1

In experiment [3] the target is T3, Tyrosine-protein phosphatase non-receptor type 1 (Homo sapiens, UniProt P18031).
T3 sequence (P18031 whole entry): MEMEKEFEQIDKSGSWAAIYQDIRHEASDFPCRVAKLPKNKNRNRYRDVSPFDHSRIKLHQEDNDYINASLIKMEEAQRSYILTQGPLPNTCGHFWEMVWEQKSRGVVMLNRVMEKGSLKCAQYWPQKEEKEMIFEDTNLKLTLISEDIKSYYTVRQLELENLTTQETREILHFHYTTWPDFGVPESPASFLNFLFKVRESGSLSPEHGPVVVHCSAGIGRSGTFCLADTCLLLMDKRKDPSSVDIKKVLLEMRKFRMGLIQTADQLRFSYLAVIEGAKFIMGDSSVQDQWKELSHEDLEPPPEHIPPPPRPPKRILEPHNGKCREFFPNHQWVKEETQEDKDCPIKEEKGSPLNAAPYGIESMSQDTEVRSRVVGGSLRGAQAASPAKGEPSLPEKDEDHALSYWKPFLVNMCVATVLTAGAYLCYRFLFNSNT
The settings on record: 25 °C. The protocol: as §1

The target of experiment [4] is Tyrosine-protein phosphatase non-receptor type 13 (Homo sapiens, UniProt Q12923). As to conditions: pH 7; 25 °C. The protocol:
as §1

Experiment [5] concerns the target T4, Tyrosine-protein phosphatase non-receptor type 2 (Homo sapiens, UniProt P17706).
T4 sequence (P17706 whole entry): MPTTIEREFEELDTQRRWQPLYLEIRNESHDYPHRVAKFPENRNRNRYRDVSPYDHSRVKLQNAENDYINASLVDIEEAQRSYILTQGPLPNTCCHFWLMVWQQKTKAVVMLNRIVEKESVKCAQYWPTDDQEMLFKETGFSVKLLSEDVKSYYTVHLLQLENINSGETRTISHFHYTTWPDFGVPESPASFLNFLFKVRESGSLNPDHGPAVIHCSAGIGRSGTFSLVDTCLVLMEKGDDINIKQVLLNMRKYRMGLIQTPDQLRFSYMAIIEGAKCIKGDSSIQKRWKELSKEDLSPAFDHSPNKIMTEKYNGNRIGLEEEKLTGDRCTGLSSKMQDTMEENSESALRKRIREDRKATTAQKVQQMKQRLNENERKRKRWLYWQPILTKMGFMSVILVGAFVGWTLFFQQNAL
The settings on record: pH 7; 25 °C. The protocol: as §1

Experiment [6] addresses Tyrosine-protein phosphatase non-receptor type 6 (Homo sapiens, UniProt P29350). The settings on record: pH 7; 25 °C. On the procedure: as §1
The target in experiment [7] is Receptor-type tyrosine-protein phosphatase F (Homo sapiens, UniProt P10586). As to conditions: pH 6; 25 °C. The protocol: as §1
Receptor-type tyrosine-protein phosphatase F, sequence (P10586 whole entry): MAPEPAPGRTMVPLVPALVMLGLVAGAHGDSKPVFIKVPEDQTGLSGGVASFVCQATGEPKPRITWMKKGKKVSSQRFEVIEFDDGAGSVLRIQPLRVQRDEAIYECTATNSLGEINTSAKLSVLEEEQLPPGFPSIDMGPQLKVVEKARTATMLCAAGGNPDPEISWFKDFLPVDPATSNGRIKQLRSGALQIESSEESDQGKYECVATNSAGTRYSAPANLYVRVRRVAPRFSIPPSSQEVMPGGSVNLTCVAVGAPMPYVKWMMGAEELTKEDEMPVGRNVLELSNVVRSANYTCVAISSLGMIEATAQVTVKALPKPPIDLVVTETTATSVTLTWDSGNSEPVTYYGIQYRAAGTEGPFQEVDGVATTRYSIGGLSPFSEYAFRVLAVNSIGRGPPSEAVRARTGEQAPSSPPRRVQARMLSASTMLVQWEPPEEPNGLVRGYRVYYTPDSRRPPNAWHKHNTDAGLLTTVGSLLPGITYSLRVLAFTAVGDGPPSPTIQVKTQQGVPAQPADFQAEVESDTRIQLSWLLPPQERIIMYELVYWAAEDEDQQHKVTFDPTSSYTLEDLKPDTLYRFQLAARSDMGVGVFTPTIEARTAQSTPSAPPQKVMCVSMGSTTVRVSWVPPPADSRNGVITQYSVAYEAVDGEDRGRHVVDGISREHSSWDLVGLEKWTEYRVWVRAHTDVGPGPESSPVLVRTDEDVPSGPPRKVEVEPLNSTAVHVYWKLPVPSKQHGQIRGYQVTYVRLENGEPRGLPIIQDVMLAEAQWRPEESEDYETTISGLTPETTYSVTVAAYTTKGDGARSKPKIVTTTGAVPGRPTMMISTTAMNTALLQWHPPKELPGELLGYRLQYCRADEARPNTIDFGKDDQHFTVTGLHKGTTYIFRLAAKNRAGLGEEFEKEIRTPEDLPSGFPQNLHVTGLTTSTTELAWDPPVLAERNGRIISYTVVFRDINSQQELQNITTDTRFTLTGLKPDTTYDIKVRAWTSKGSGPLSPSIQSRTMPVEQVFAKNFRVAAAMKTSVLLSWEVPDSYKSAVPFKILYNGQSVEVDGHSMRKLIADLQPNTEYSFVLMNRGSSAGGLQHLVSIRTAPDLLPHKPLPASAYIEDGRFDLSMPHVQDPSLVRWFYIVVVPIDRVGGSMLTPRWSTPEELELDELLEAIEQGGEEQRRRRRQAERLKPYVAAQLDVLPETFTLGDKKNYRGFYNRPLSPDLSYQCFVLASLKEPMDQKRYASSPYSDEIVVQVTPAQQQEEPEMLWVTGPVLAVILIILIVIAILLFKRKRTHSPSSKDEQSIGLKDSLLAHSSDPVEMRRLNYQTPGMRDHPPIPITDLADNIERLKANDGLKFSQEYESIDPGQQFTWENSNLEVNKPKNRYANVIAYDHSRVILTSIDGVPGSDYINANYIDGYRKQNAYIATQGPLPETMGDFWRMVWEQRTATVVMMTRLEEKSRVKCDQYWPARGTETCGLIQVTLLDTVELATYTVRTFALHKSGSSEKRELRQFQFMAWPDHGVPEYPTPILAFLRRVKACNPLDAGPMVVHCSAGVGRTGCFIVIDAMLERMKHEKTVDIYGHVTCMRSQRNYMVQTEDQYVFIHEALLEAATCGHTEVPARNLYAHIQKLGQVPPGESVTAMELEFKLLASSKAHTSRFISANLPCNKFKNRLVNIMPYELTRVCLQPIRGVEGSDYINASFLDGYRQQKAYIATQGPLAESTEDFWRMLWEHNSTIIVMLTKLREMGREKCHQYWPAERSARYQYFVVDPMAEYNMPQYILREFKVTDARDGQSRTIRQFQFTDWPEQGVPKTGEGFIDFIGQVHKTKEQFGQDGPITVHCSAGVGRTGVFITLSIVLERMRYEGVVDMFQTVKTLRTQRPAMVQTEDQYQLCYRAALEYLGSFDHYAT

Tyrosine-protein phosphatase non-receptor type 13, sequence (Q12923 whole entry): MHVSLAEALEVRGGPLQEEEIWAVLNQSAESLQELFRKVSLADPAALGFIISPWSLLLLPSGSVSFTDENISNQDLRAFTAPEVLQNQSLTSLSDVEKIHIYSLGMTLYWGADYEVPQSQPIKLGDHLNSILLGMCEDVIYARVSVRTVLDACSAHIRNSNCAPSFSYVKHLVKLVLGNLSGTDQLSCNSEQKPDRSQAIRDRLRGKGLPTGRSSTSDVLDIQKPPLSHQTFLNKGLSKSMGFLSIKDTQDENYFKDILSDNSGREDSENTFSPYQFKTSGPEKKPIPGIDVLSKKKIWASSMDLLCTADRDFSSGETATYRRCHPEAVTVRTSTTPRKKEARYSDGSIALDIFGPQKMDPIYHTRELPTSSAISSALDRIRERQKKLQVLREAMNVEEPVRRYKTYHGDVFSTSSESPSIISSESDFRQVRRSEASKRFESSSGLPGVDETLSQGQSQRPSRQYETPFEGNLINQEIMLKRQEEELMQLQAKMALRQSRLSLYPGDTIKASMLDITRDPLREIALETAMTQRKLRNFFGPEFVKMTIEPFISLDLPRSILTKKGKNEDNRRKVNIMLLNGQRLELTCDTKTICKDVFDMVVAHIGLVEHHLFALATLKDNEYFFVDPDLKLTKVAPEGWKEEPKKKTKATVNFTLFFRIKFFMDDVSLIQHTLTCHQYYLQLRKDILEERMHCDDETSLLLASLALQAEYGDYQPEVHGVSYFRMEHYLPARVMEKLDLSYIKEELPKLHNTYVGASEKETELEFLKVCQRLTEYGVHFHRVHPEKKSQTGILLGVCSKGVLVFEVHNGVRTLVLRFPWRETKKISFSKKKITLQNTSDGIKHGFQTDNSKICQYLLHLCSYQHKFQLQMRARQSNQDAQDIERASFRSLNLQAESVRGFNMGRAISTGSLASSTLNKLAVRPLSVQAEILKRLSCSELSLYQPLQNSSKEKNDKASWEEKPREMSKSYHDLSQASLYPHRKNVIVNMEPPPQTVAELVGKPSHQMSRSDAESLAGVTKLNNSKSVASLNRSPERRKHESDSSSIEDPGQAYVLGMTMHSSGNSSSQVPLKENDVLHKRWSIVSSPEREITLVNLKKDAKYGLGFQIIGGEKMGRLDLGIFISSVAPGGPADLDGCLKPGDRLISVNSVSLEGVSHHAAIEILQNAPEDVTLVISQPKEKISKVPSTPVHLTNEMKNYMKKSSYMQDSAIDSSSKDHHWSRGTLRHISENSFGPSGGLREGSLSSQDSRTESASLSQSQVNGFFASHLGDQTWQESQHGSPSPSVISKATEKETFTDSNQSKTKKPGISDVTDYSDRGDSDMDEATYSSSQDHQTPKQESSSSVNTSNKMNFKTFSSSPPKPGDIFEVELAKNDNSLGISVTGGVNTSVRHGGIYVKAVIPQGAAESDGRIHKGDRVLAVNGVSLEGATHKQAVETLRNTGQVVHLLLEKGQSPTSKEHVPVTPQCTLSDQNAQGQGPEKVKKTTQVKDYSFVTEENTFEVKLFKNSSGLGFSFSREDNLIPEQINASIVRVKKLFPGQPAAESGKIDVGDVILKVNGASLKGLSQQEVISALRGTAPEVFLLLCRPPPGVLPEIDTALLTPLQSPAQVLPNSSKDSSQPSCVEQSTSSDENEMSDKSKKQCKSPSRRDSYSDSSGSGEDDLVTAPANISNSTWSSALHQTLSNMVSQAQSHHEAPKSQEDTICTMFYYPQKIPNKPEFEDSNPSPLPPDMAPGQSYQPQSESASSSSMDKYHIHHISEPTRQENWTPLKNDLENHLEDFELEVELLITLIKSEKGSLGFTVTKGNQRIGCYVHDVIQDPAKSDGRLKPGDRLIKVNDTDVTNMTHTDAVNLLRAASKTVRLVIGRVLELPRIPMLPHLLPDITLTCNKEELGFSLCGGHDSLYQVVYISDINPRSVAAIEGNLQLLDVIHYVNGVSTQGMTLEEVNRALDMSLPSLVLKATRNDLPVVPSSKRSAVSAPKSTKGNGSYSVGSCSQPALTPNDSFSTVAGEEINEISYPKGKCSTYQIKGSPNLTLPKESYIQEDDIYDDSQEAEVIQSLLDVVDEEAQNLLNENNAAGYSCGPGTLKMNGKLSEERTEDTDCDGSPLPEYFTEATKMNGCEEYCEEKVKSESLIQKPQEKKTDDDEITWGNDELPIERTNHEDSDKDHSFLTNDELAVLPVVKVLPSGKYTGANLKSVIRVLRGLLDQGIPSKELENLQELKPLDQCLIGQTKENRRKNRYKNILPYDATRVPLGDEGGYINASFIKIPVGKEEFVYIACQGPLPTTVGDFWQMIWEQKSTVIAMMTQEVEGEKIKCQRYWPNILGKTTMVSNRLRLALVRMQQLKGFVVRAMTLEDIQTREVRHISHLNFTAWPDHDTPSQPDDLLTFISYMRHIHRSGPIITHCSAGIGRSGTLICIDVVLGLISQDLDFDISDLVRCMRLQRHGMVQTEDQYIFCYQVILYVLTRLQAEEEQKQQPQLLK
Tyrosine-protein phosphatase non-receptor type 6, sequence (P29350 whole entry): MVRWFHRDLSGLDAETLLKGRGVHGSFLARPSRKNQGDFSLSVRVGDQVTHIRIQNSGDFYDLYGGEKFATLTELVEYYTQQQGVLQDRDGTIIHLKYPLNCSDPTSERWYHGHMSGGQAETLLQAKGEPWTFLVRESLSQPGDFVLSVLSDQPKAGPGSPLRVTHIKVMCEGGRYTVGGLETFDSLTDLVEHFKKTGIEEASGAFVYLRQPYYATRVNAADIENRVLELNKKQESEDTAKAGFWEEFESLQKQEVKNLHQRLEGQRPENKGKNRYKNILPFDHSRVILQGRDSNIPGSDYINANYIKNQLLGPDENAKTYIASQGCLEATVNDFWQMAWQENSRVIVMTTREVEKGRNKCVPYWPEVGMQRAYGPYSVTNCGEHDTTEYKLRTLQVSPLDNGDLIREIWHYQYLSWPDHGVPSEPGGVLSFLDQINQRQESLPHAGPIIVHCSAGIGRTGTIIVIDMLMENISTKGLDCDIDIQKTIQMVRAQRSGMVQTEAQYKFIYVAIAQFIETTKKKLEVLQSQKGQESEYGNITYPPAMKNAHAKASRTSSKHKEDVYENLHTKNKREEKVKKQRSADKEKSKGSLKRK

Take `COc1cc(/C=C2\SC(=S)N(c3cccc(Cl)c3)C2=O)cc([N+](=O)[O-])c1O` [Thioxothiazolidinone derivative, 1]: the pIC50 – broadly, the negative decadic logarithm of the IC50, by convention in mol/L – in experiment [1] was 5.03; in experiment [2] it was less than 4.30; in experiment [3] (pH 6), 5.37; in experiment [3] (pH 7) it was 5.39; in experiment [4], 5.43; in experiment [5], 5.28. Further, the figures for the pIC50 in experiment [6] and in experiment [7] were 5.41 and less than 4.30, respectively.

`COc1cc(/C=C2\SC(=S)N(c3ccccc3)C2=O)cc([N+](=O)[O-])c1O` [Thioxothiazolidinone derivative, 3] showed a pIC50 in experiment [3] of less than 4.00.

Compound `COc1cc(/C=C2\SC(=S)N(c3ccc(Cl)cc3)C2=O)cc([N+](=O)[O-])c1O` [Thioxothiazolidinone derivative, 4] had a pIC50 in experiment [3] of 5.27.

`COc1cc(/C=C2\SC(=S)N(c3cccc(F)c3)C2=O)cc([N+](=O)[O-])c1O` [Thioxothiazolidinone derivative, 5] showed a pIC50 in experiment [3] of 4.92.

`COc1cc(/C=C2\SC(=S)N(c3cccc(C)c3)C2=O)cc([N+](=O)[O-])c1O` [Thioxothiazolidinone derivative, 6]: the negative-log IC50 (pIC50) in experiment [3] was 4.54.

In turn, `COc1cccc(N2C(=O)/C(=C/c3cc(OC)c(O)c([N+](=O)[O-])c3)SC2=S)c1` [Thioxothiazolidinone derivative, 7] had a pIC50 in experiment [3] of 4.80.

Compound `COc1cc(/C=C2\SC(=S)N(c3ccc(O)cc3)C2=O)cc([N+](=O)[O-])c1O` [Thioxothiazolidinone derivative, 8] showed a pIC50 in experiment [3] of 4.54.

The compound `COc1cc(/C=C2\SC(=S)N(c3ccc(C)cc3)C2=O)cc([N+](=O)[O-])c1O` [Thioxothiazolidinone derivative, 9] showed a pIC50 in experiment [3] of 5.06.

In experiment [3], `COc1ccc(N2C(=O)/C(=C/c3cc(OC)c(O)c([N+](=O)[O-])c3)SC2=S)cc1` [Thioxothiazolidinone derivative, 10] showed a pIC50 of 5.20.

Turning to `COc1cc(/C=C2\SC(=S)N(c3ccc([N+](=O)[O-])cc3)C2=O)cc([N+](=O)[O-])c1O` [Thioxothiazolidinone derivative, 11], the pIC50 in experiment [3] was 5.15.

In the case of `COc1cc(/C=C2\SC(=S)N(c3ccc(Cl)c(Cl)c3)C2=O)cc([N+](=O)[O-])c1O` [Thioxothiazolidinone derivative, 12], the pIC50 in experiment [3] was 5.15.

In the case of `O=C1/C(=C/c2ccc(O)c([N+](=O)[O-])c2)SC(=S)N1c1cccc(Cl)c1` [Thioxothiazolidinone derivative, 13], the pIC50 in experiment [3] is 4.17.

For `COc1cc(/C=C2\SC(=S)N(c3cccc(Cl)c3)C2=O)ccc1O` [Thioxothiazolidinone derivative, 14], in experiment [3], the pIC50 was 4.36.

Regarding `O=C1/C(=C/c2cc(O)c(O)c([N+](=O)[O-])c2)SC(=S)N1c1cccc(Cl)c1` [Thioxothiazolidinone derivative, 15], in experiment [3], the pIC50 was 4.74.

In turn, `COc1cc(/C=C2\SC(=S)N(c3cccc(Cl)c3)C2=O)cc(C(=O)O)c1O` [Thioxothiazolidinone derivative, 17] gave a pIC50 in experiment [3] of 5.14.

On to `COc1cc(C=C2SC(=S)N(c3cccc(Cl)c3)C2=O)cc(CP(=O)(O)O)c1O` [Thioxothiazolidinone derivative, 18], for which the pIC50 in experiment [3] was less than 4.00.
